Where only a bound is given, the exact number is not on record here.

One data set relates to COLO 205. The data set is described as follows: Antiproliferative activity against human COLO205 cells after 96 hrs by celltiter 96 assay. In kind it is functional, cell-based. Conditions: COLO 205, 96 h.
Data set [1] concerns HCT-116. Put plainly: Antitumor activity against human HCT116 cells xenografted in nude BALB/c mouse assessed as tumor growth inhibition at 50 mg/kg, po qd for 21 days measured on day 18. In kind it is functional. The conditions noted are these: read-out: TGI.
In a further data set the test system is PC-3. Put plainly: Antiproliferative activity against human PC3 cells after 96 hrs by celltiter 96 assay. Conditions: PC-3, 96 h. It is filed as functional, cell-based.
For a further data set, the system named is A2780. Put plainly: Antiproliferative activity against human A2780 cells after 96 hrs by celltiter 96 assay. In kind it is functional, cell-based. Conditions: A2780, 96 h.
A short description of data set [2]: Oral bioavailability in nude BALB/c mouse at 50 mg/kg. In kind it is ADME, organism-based. The conditions noted are these: in vivo.
Data set [3] relates to HCT-116. Put plainly: Antitumor activity against human HCT116 cells xenografted in nude BALB/c mouse assessed as tumor growth inhibition at 50 mg/kg, po qd for 21 days measured on day 15. In kind it is functional. Conditions: read-out: TGI. (In general: Xenograft models place foreign cells or tissue in a host animal.)
Data set [4] has as its system Mus musculus. Put plainly: Toxicity in nude BALB/c mouse xenografted with human HCT116 cells assessed as mouse survival at 50 mg/kg, po QD for 21 days measured on day 22. In kind it is organism-based, HCT-116. Also on record: dose 50 mg/kg, route oral. The conditions noted are these: in vivo, 504 h.
Data set [5] relates to Mus musculus. The data set is described as follows: Toxicity in nude BALB/c mouse xenografted with human HCT116 cells assessed as body weight loss at 50 mg/kg, po QD for 21 days measured on day 12. It is filed as organism-based, HCT-116. Also on record: dose 50 mg/kg, route oral. The conditions noted are these: in vivo, 504 h.
Data set [6] concerns HCT-116. The data set is described as follows: Antiproliferative activity against human HCT116 cells after 96 hrs by celltiter 96 assay. It is filed as functional, cell-based. The conditions noted are these: HCT-116, 96 h.
For data set [7], the system named is HCT-116. The data set is described as follows: Antitumor activity against human HCT116 cells xenografted in athymic nu/nu Harlan mouse assessed as tumor growth inhibition at 200 mg/kg, po qd for 7 days measured on day 22. In kind it is functional. Conditions: read-out: TGI.
The subject of data set [8] is HCT-116. Put plainly: Antitumor activity against human HCT116 cells xenografted in athymic nu/nu Harlan mouse assessed as tumor growth inhibition at 100 mg/kg, po qd measured on day 22. Conditions: HCT-116, po, read-out: TGI.
Data set [9] relates to HCT-116. The data set is described as follows: Antitumor activity against human HCT116 cells xenografted in athymic nu/nu Harlan mouse assessed as tumor growth inhibition at 50 mg/kg, po qd for 21 days measured on day 22. Conditions: HCT-116, po, read-out: TGI.
The nature of data set [10]: Half life in rat liver microsomes. It is filed as ADME, Microsome. A general note: Microsomes from liver hold many membrane-bound enzymes, among them those of drug oxidation.
The nature of data set [11]: Half life in dog liver microsomes. It is filed as ADME, Canis lupus familiaris, Microsome.
Data set [12] is described as follows: Kinetic solubility of the compound at pH 7 with […] DMSO. It is filed as physicochemical. The conditions noted are these: buffer, read-out: Kinetic_solubility.
Data set [13] is described as follows: Half life in mouse liver microsomes. It is filed as ADME, Microsome. Conditions: liver microsomes.
Data set [14] concerns Mus musculus. Put plainly: Toxicity in athymic nu/nu Harlan mouse xenografted with human HCT116 cells assessed as mouse survival at 100 mg/kg, po QD for 7 days measured on day 22. Also on record: dose 100 mg/kg, route oral. It is filed as organism-based, HCT-116. Conditions: in vivo, 168 h.
Data set [15] in a line: Half life in human liver microsomes. In kind it is ADME, Microsome.
Data set [16] is described as follows: Apparent permeability from apical to basolateral side of human Caco2 cells. It is filed as ADME, cell-based. The conditions noted are these: Caco-2. For orientation: Passage across Caco-2 layers is used to estimate intestinal permeability.
In data set [17] the test system is Mus musculus. The data set is described as follows: Toxicity in athymic nu/nu Harlan mouse xenografted with human HCT116 cells assessed as body weight loss at 100 mg/kg, po QD for 7 days measured on day 5. It is filed as organism-based, HCT-116. Also on record: dose 100 mg/kg, route oral. The conditions noted are these: in vivo, 168 h.
The subject of data set [18] is Mus musculus. Put plainly: Toxicity in athymic nu/nu Harlan mouse xenografted with human HCT116 cells assessed as body weight loss at 50 mg/kg, po QD for 21 days measured on day 5. Conditions: in vivo, 504 h.
Data set [19] deals with Mus musculus. Put plainly: Toxicity in athymic nu/nu Harlan mouse xenografted with human HCT116 cells assessed as body weight loss at 200 mg/kg, po QD for 7 days measured on day 5. Conditions: in vivo, 168 h.
A short description of data set [20]: Apparent permeability from basolateral to apical side of human Caco2 cells. In kind it is ADME, cell-based. The conditions noted are these: Caco-2.
The test system of data set [21] is Mus musculus. The data set is described as follows: Toxicity in athymic nu/nu Harlan mouse xenografted with human HCT116 cells assessed as mouse survival at 50 mg/kg, po QD for 7 days measured on day 22. It is filed as organism-based, HCT-116. Also on record: dose 50 mg/kg, route oral. Conditions: in vivo, 168 h.

With `Cc1[nH]c2ccccc2c1CCNCc1ccc(/C=C/C(=O)NO)cc1` [PANOBINOSTAT], the half-maximal inhibitory concentration (IC50) with COLO 205 was determined as 18 nM; in the data set on PC-3 it was 24 nM; with A2780, 35 nM; with HCT-116 [6], 48 nM. Also, the results for the inhibition in vivo at 50 mg/kg in the data set on HCT-116 [1] and with HCT-116 [3] were 61% and 41%, respectively. Besides, the bioavailability in [2] amounted to 4.6%. Further, the Activity entry is given as “Non-toxic” in the data set on Mus musculus [4] and 17.3% in the data set with Mus musculus [5].

Regarding `CCCCCCc1nc2cc(/C=C/C(=O)NO)ccc2n1CCN(C)C.Cl.Cl`, the inhibition in vivo at 200 mg/kg in the data set with HCT-116 [7] is 53%. Besides, the inhibition in vivo at 100 mg/kg in the data set with HCT-116 [8] worked out at 50%. Further, in the data set on HCT-116 [9], the inhibition in vivo at 50 mg/kg stood at 17%. The half-life in [10] is 10 min; in [11], 10 min; in data set [13], 16 min; in data set [15], over 60 min. For the same molecule, in data set [12], the solubility kinetic was over 200 µM. Further, the Activity result is reported as “Non-toxic” with Mus musculus [14]; 4.9% in the data set on Mus musculus [17]; 1.9% in the data set on Mus musculus [18]; 18% in the data set on Mus musculus [19]; “Non-toxic” in the data set with Mus musculus [21]. Moreover, the Papp A→B in data set [16] was found to be 9.59 ×10⁻⁶ cm/s. Further, the apparent permeability from basolateral to apical (Papp B→A) in [20] was found to be 26 ×10⁻⁶ cm/s.

Broadly, the IC50 is the midpoint of a concentration-inhibition curve. A high value points to weaker potency. In general, bioavailability refers to the share of a dose that reaches the circulation, judged against a reference dose that is usually intravenous. A high value points to good availability. The half-life is how long it takes for the measured level to halve. Higher therefore signals slow loss. By Papp A→B is commonly meant how fast a substance crosses the layer from the apical side. One may read the Papp B→A as how fast a substance crosses the layer from the basolateral side.

The values above are taken from ChEMBL document CHEMBL1828590 (J Med Chem, 2011).
